Reference: patent US20210198317A1, “REACTIVE OXYGEN PRODUCTION INHIBITOR AND/OR SCAVENGING PROMOTER” (NATIONAL UNIVERSITY CORPORATION OKAYAMA UNIVERSITY, priority 2018, published 2021)
Entries after “also recorded” stand apart in the source; their conditions may differ.

Tests used:
[1] = OxiSelect ORAC Activity Assay Kit: antioxidant activity against peroxy radicals (AAPH); type: biochemical; conditions: for antioxidant action against peroxy radicals (fluorescence intensity): every 5 minutes for 60 minutes; for Antioxidant Activity Against Peroxy Radicals (NetAUC): AUCsample minus AUCblank, 60 minutes
Procedure: In this Example, HRG was investigated for its antioxidant action against peroxy radicals. As a positive control, Trolox was used. Antioxidant activity against peroxy radicals was measured with OxiSelect™ ORAC Activity Assay Kit (Cell Biolabs, San Diego, Calif.) in accordance with the specifications. The fluorescent probe solution was added to a sample solution, the mixture was incubated at 37° C. for 30 minutes, and added with 2,2′-azobis-(2-methylpropionamidine) dihydrochloride (AAPH), followed by immediate measurement of fluorescence intensity (Ex/Em=485 nm/538 nm). In the presence of peroxy radicals, the fluorescence of the fluorescent probe is quenched, and the quenching is inhibited when antioxidant activity is present. A. For each of 0 μM to 6.25 μM Trolox sample solutions, their fluorescence intensities (Ex/Em=485 nm/538 nm) were measured every 5 minutes for 60 minutes in accordance with the above-mentioned measurement method. […] B. For each of 0 μM to 1 μM HRG sample solutions, their fluorescence intensity (Ex/Em=485 nm/538 nm) were measured every 5 minutes for 60 minutes in accordance with the above-mentioned measurement method. […] The difference between the area under the curve of the fluorescence intensity of Trolox or HRG (AUCsample) and the area under the curve of the blank (AUCblank) was measured every 5 minutes for 60 minutes after the initiation of reaction to calculate NetAUC. […] In this Example, the histidine-rich peptide was investigated for its antioxidant action against peroxy radicals in the same manner as in Example 4. A. The fluorescent probe solution was added to each solution of HRG (1 μM), the histidine-rich peptide (6 μM), or the control peptide (6 μM), and antioxidant activity against peroxy radicals was measured by the same technique as that of Example 4. […] B. The fluorescent probe solution was added to histidine-rich peptide solutions (0.1 μM to 10 μM), and antioxidant activity against peroxy radicals was measured by the same technique as that of Example 4. […] The difference between the area under the curve of the fluorescence intensity of the histidine-rich peptide or HRG (AUCsample) and the area under the curve of the blank (AUCblank) was measured every 5 minutes for 60 minutes after the initiation of reaction to calculate NetAUC.

[2] = OxiSelect HORAC Activity Assay Kit: antioxidant activity against hydroxy radicals (cell-free, Fenton's reagent); type: biochemical; conditions: for Antioxidant Activity Against Hydroxy Radicals (NetAUC): AUCsample minus AUCblank, 60 minutes; for antioxidant action against hydroxy radicals (fluorescence intensity): every 5 minutes for 60 minutes
Procedure: Antioxidant activity against hydroxy radicals was measured with OxiSelect™ HORAC Activity Assay Kit (Cell Biolabs, San Diego, Calif.) in accordance with the specifications. A fluorescent probe solution was added to a sample solution, the mixture was incubated at 37° C. for 30 minutes, and a hydroxy radical initiator (H2O2) and Fenton's reagent were added, followed by the measurement of a fluorescence intensity (Ex/Em=485 nm/538 nm) based on the oxidation of the fluorescent probe by hydroxy radicals via hydrogen atom transfer (HAT). In the presence of hydroxy radicals, the fluorescence of the fluorescent probe is quenched, and the quenching is inhibited when antioxidant activity is present. As the sample solution, 0.01 μM to 1 μM HRG solutions, or 50 μM to 100 μM GA solutions were used. A. For each of the 50 μM to 100 μM gallic acid (GA) sample solutions, their fluorescence intensities (Ex/Em=485 nm/538 nm) were measured every 5 minutes for 60 minutes in accordance with the above-mentioned measurement method. The fluorescence intensities of GA and a blank were plotted on the vertical axis, and the measurement times were plotted on the horizontal axis. […] B. For each of the 0 μM to 1 μM HRG sample solutions, their fluorescence intensities (Ex/Em=485 nm/538 nm) were measured every 5 minutes for 60 minutes in accordance with the above-mentioned measurement method. The fluorescence intensities of HRG and a blank were plotted on the vertical axis, and the measurement times were plotted on the horizontal axis. […] The difference between the area under the curve of the fluorescence intensity of GA or HRG (AUCsample) and the area under the curve of the blank (AUCblank) was measured every 5 minutes for 60 minutes after the initiation of reaction, and NetAUC was calculated. […] In this Example, the histidine-rich peptide (SEQ ID NO: 10) was investigated for its antioxidant action against hydroxy radicals by the same technique as that of Example 1. A control peptide (SEQ ID NO: 11) was similarly investigated. A. The fluorescent probe solution was added to each solution of HRG (1 μM), the histidine-rich peptide (6 μM), or the control peptide (6 μM), and antioxidant activity against hydroxy radicals was measured by the same technique as that of Example 1. […] B. The fluorescent probe solution was added to histidine-rich peptide solutions (0.1 μM to 10 μM), and the resultant mixtures were measured for their antioxidant activity against hydroxy radicals by the same technique as that of Example 1. […] The difference between the area under the curve of the fluorescence intensity of the histidine-rich peptide or HRG (AUCsample) and the area under the curve of the blank (AUCblank) was measured every 5 minutes for 60 minutes after the initiation of reaction to calculate NetAUC.

[3] = Calorimetry (MicroCal iTC200) metal ion-binding property, trivalent iron ions; conditions: FIG. 4A, 5A, 6A
Procedure: (§1) In this Example, in order to investigate the binding properties of HRG to metal ions serving as essential factors in Fenton' s reaction, an experiment was performed using calorimetry. MicroCal iTC200 was used as a calorimeter, and binding properties between various metals (iron, copper, cobalt, zinc, and nickel) and samples were measured in accordance with the specifications.

[4] = Calorimetry (MicroCal iTC200) metal ion-binding property, divalent metal ions; conditions: for binding to divalent metal ions: iron, copper, cobalt, zinc, nickel, FIG. 4A-6B
Procedure: as §1

[5] = DetectX Superoxide Dismutase (SOD) Colorimetric Activity Kit: antioxidant action against superoxide (xanthine/xanthine oxidase); type: biochemical; conditions: 0.01 μM to 1 μM; room temperature 20 minutes; absorbance 450 nm; FIG. 9A-B
From the text: In this Reference Example, the antioxidant action of HRG against superoxide was investigated through use of DetectX Superoxide Dismutase (SOD) Colorimetric Activity Kit (Arbor Assays, Ann Arbor, Mich.). HRG used was plasma-derived HRG generated by the method described in Example 1. Superoxide anion (O^2−) is generated by a xanthine/xanthine oxidase (XOD) system, and is detected through use of a chromogen solution. Superoxide dismutase (SOD) is a metalloenzyme that catalyzes the conversion of O^2− into an oxygen molecule and hydrogen peroxide. The presence of SOD decreases the O^2− concentration to decrease a dye signal.
In accordance with the specifications, xanthine oxidase, and a substrate were added to 0.01 μM to 1 μM HRG solutions, and the mixtures were incubated at room temperature for 20 minutes. After that, the reaction solutions were each measured for its absorbance at a wavelength of 450 nm. As a control, measurement was similarly performed for SOD.

[6] = OxiSelect Catalase Activity Assay Kit: catalase-like activity; type: biochemical; conditions: 0.01 μM to 1 μM; FIG. 10A-B
Procedure: In this Reference Example, whether HRG had catalase-like activity was investigated through use of OxiSelect™ Catalase Activity Assay Kit (Cell Biolabs, San Diego, Calif.). HRG used was plasma-derived HRG generated by the method described in Example 1. A prescribed amount of hydrogen peroxide was allowed to react with 0.01 μM to 1 μM HRG. Next, the remaining hydrogen peroxide was incubated in the presence of HRP with a probe (colorimetric measurement: DHBS+AAP; and fluorescence measurement: ADHP (10-Acetyl-3,7-dihydroxyphenoxazine)) at 37° C. for 30 minutes, and the resulting fluorescence intensity (Ex/Em=544 nm/590 nm) was measured. As a control, measurement was similarly performed for catalase.

[7] = overall conclusion from the results

| binding to trivalent iron ions [3] | Molecule | antioxidant activity against hydroxy radicals ([2]; 6 μM, FIG. 3A) | Antioxidant Activity Against Hydroxy Radicals (NetAUC) ([2]; FIG. 3C) | antioxidant activity against hydroxy radicals [2, 7] | antioxidant activity against peroxy radicals ([1]; 6 μM, FIG. 8A) | Antioxidant Activity Against Peroxy Radicals (NetAUC) ([1]; FIG. 8C) | binding to divalent metal ions [4] | further results |
| --- | --- | --- | --- | --- | --- | --- | --- | --- |
|  | Cc1c(C)c2c(c(C)c1O)CCC(C)(C(=O)O)O2 (stereo not drawn) [Trolox, reference compound] |  |  |  |  |  |  | antioxidant action against peroxy radicals (fluorescence intensity) ([1]; 0 μM to 6.25 μM sample solutions, FIG. 7A): antioxidant action against peroxy radicals was recognized in a manner dependent on the concentration of Trolox |
| does not bind to trivalent iron ions | GHHPHGHHPH [histidine-rich peptide] | potent antioxidant actions | potent antioxidant action against hydroxy radicals | potent antioxidant activity against hydroxy radicals | an antioxidant action, which was slightly weaker | weak as compared to HRG | bind to divalent metal ions (iron, copper, cobalt, zinc, and nickel) | antioxidant activity against hydroxy radicals ([2]; 0.1 μM to 10 μM, FIG. 3B): potent antioxidant activity in a concentration-dependent manner; antioxidant activity against peroxy radicals ([1]; 0.1 μM to 10 μM, FIG. 8B): antioxidant activity in a slightly concentration-dependent manner |
|  | O=C(O)c1cc(O)c(O)c(O)c1 [GA, gallic acid, reference compound] |  |  |  |  |  |  | antioxidant action against hydroxy radicals (fluorescence intensity) ([2]; 50 μM to 100 μM sample solutions, FIG. 2A): antioxidant action against hydroxy radicals was recognized in a manner dependent on the concentration of GA |
| did not bind to trivalent iron ions | HRG: Histidine-rich glycoprotein, plasma protein of 507 amino acids (SEQ ID NO: 1), generated from human plasma as a starting material (protein, listed as Homo sapiens) VSPTDCSAVEPEAEKALDLINKRRRDGYLFQLLRIADAHLDRVENTTVYYLVLDVQESDCSVLSRKYWNDCEPPDSRRPSEIVIGQCKVIATRHSHESQDLRVIDFNCTTSSVSSALANTKDSPVLIDFFEDTERYRKQANKALEKYKEENDDFASFRVDRIERVARVRGGEGTGYFVDFSVRNCPRHHFPRHPNVFGFCRADLFYDVEALDLESPKNLVINCEVFDPQEHENINGVPPHLGHPFHWGGHERSSTTKPPFKPHGSRDHHHPHKPHEHGPPPPPDERDHSHGPPLPQGPPPLLPMSCSSCQHATFGTNGAQRHSHNNNSSDLHPHKHHSHEQHPHGHHPHAHHPHEHDTHRQHPHGHHPHGHHPHGHHPHGHHPHGHHPHCHDFQDYGPCDPPPHNQGHCCHGHGPPPGHLRRRGPGKGPRPFHCRQIGSVYRLPPLRKGEVLPLPEANFPSFPLPHHKHPLKPDNQPFPQSVSESCPGKFKSGFPQVSMFFTHTFPK |  | potent antioxidant action against hydroxy radicals | potent antioxidant activity against hydroxy radicals |  | had an antioxidant action against peroxy radicals | bound to divalent metal ions (iron, copper, cobalt, zinc, and nickel) | antioxidant action against hydroxy radicals (fluorescence intensity) ([2]; 0 μM to 1 μM sample solutions, FIG. 2B): antioxidant action against hydroxy radicals was recognized in a manner dependent on the concentration of HRG; antioxidant activity against hydroxy radicals ([2]; 1 μM, FIG. 3A): potent antioxidant actions; Antioxidant Activity Against Hydroxy Radicals (NetAUC) ([2]; various concentrations, FIG. 2C): potent antioxidant action against hydroxy radicals; antioxidant action against peroxy radicals (fluorescence intensity) ([1]; 0 μM to 1 μM sample solutions, FIG. 7B): antioxidant action against peroxy radicals was recognized in a manner dependent on the concentration of HRG; antioxidant activity against peroxy radicals ([1]; 1 μM, FIG. 8A): potent antioxidant action; Antioxidant Activity Against Peroxy Radicals (NetAUC) ([1]; various concentrations, FIG. 7C): has an antioxidant action against peroxy radicals; antioxidant activity against peroxy radicals [1, 7]: showed an antioxidant activity against peroxy radicals; scavenging activity / antioxidant action against superoxide [5]: no scavenging activity against superoxide; also recorded: hardly showed an antioxidant action against superoxide; also recorded: no antioxidant action against superoxide; catalase-like activity [6]: no catalase-like activity; number of divalent metal ions bound per molecule ([4]; FIG. 4A): a large number of divalent metal ions bind to one molecule of HRG |

| Molecule | binding to trivalent iron ions [3] | antioxidant activity against hydroxy radicals ([2]; 6 μM, FIG. 3A) | Antioxidant Activity Against Hydroxy Radicals (NetAUC) ([2]; FIG. 3C) | antioxidant activity against hydroxy radicals [2, 7] | antioxidant activity against peroxy radicals ([1]; 6 μM, FIG. 8A) | Antioxidant Activity Against Peroxy Radicals (NetAUC) ([1]; FIG. 8C) | binding to divalent metal ions [4] | further results |
| --- | --- | --- | --- | --- | --- | --- | --- | --- |
| GAAPAGAAPA (Standard peptide) [control peptide, reference compound] | did not bind to any of the various metal ions | no antioxidant action |  |  | no antioxidant action |  | did not bind to any of the various metal ions |  |
